According to ChEMBL document CHEMBL5331053, “Defining the structure-activity relationship for a novel class of allosteric MKP5 inhibitors” (Eur J Med Chem, 2022):
pIC50: −log10 of the molar value.

Tests used:
[1] = target: T1, Dual specificity protein phosphatase 10 (Homo sapiens, UniProt Q9Y6W6); test: Inhibition of human MKP5 catalytic domain (320 to 467 residues) expressed in Escherichia coli BL21 (DE3) cells by MST assay
T1 sequence (Q9Y6W6 whole entry): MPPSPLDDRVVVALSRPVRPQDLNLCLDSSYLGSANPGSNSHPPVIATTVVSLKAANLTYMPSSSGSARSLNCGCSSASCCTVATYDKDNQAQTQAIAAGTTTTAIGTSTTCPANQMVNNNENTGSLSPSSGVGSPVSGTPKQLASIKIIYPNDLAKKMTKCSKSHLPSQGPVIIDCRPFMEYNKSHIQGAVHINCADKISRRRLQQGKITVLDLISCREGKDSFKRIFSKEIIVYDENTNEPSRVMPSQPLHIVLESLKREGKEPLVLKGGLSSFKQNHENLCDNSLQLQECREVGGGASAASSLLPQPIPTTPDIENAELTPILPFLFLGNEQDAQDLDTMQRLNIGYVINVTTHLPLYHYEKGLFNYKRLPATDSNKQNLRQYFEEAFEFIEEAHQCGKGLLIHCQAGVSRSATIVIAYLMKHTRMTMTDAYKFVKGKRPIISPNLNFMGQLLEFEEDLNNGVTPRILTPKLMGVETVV

[2] = target: T1, Dual specificity protein phosphatase 10; test: Inhibition of MKP5 catalytic domain (unknown origin) expressed in Escherichia coli BL21 (DE3) cells assessed as p38alpha MAPK phosphopeptide dephosphorylation using phosphopeptide as substrate incubated for 15 mins followed by substrate addition by malachite green dye based analysis

Question: Which results are given for CSc1scc2c1-c1nc(SCC(=O)C(C)(C)C)ncc1CC2?
Answer: pIC50 [1]: 5.42; pIC50 [2]: 5.55

Question: CCc1csc2c1-c1nc(SCC(=O)C(C)(C)C)ncc1CC2 was tested. Which pIC50 [2] did it give?
Answer: 5.30

Question: How did the pIC50 [2] turn out when Cc1ccc2c(c1)-c1nc(SCC(=O)C(C)(C)C)ncc1CC2 was run?
Answer: 5.12

Question: How did the pIC50 [2] turn out when CC(C)(C)C(=O)CSc1ncc2cnc3ccccc3c2n1 was run?
Answer: 4.23

Question: CCN(C)C(=O)CSc1ncc2c(n1)-c1c(csc1SC)CC2 was tested. Which pIC50 [2] did it give?
Answer: 4.09

Question: With CC(C)(C)C(=O)CSc1nccc(-c2cccnc2)n1 as the molecule, how does the pIC50 [2] read?
Answer: 4.00

Question: How did the pIC50 [2] turn out when CC(C)(C)C(=O)CSc1ncc2c(n1)-c1cccnc1CC2 was run?
Answer: 4.12

Question: With CC(C)(C)C(=O)CSc1ncc2c(n1)-c1cc(Cl)ccc1CC2 as the molecule, how does the pIC50 [2] read?
Answer: 5.40

Question: How did the pIC50 [2] turn out when CC(=O)N1Cc2cnc(SCC(=O)C(C)(C)C)nc2-c2ccccc21 was run?
Answer: 3.82

Question: How did the pIC50 [2] turn out when CC(C)(C)C(=O)CSc1ncc2c(n1)-c1ccccc1CC2 was run?
Answer: 5.21

Question: How did the pIC50 [2] turn out when CC(C)(C)C(=O)CSc1ncc2c(n1)-c1ccsc1CC2 was run?
Answer: 5.15

Question: How did the pIC50 [2] turn out when CC(C)(C)C(=O)CSc1nccc(-c2ccccc2)n1 was run?
Answer: 4.57

Question: With CCCc1csc2c1-c1nc(SCC(=O)C(C)(C)C)ncc1CC2 as the molecule, how does the pIC50 [2] read?
Answer: 4.96
